According to patent publication US20100099561A1, “HETEROBICYCLIC ALKYLTHIO-BRIDGED ISOXAZOLINES” (E.I. DU PONT DE NEMOURS AND COMPANY, priority 2008, published 2010):

How the values were obtained:
Format in all cases: in vivo
[1] = tested on: velvetleaf (Abutilon theophrasti); experiment: Test A preemergence, velvetleaf; details: 0 to 100 scale (0 no effect, 100 complete control)
Summary of the method: (§1)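 Visual injury scored 0 (no effect) to 100 (complete control) against untreated plants roughly ten days after greenhouse treatment. Postemergence sprays hit one- to two-leaf plants 2–10 cm high; preemergence was a directed spray onto loam–sand soil, both using surfactant-containing solvent formulations.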

[2] = tested on: ducksalad (Heteranthera limosa); experiment: Test B flooded paddy test, ducksalad; details: Flood, scale 0 to 100
Summary of the method: (§2)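 Rice, umbrella sedge, ducksalad and barnyardgrass at 2-leaf stage; pots flooded to 3 cm, compounds applied into paddy water, depth held throughout. Greenhouse 13 to 15 days, then visual rating vs untreated controls on 0–100 scale (0 no effect, 100 complete control); dash means no test result.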

corn (Zea mays) [3] = experiment: Test A preemergence, corn; details: 0 to 100 scale (0 no effect, 100 complete control)
Summary of the method: as §1

[4] = tested on: umbrella sedge (Cyperus difformis); experiment: Test B flooded paddy test, umbrella sedge; details: Flood, scale 0 to 100
Summary of the method: as §2

[5] = tested on: large crabgrass (Digitaria sanguinalis); experiment: Test A preemergence, large crabgrass; details: 0 to 100 scale (0 no effect, 100 complete control)
Summary of the method: as §1

[6] = tested on: morningglory (Ipomoea spp.); experiment: Test A postemergence, morningglory; details: 0 to 100 scale (0 no effect, 100 complete control)
Summary of the method: as §1

[7] = tested on: large crabgrass (Digitaria sanguinalis); experiment: Test A postemergence, large crabgrass; details: 0 to 100 scale (0 no effect, 100 complete control)
Summary of the method: as §1

[8] = tested on: barnyardgrass (Echinochloa crus-galli); experiment: Test B flooded paddy test, barnyardgrass; details: Flood
Summary of the method: as §2

[9] = tested on: velvetleaf (Abutilon theophrasti); experiment: Test A postemergence, velvetleaf; details: 0 to 100 scale (0 no effect, 100 complete control)
Summary of the method: as §1

corn (Zea mays) [10] = experiment: Test A postemergence, corn; details: 0 to 100 scale (0 no effect, 100 complete control)
Summary of the method: as §1

rice (Oryza sativa) = experiment: Test B flooded paddy test, rice; details: Flood, scale 0 to 100
Summary of the method: as §2

[11] = tested on: morningglory (Ipomoea spp.); experiment: Test A preemergence, morningglory; details: 0 to 100 scale (0 no effect, 100 complete control)
Summary of the method: as §1

[12] = tested on: pigweed (Amaranthus retroflexus); experiment: Test A postemergence, pigweed; details: 0 to 100 scale (0 no effect, 100 complete control)
Summary of the method: as §1

[13] = tested on: giant foxtail (Setaria faberi); experiment: Test A postemergence, giant foxtail; details: 0 to 100 scale (0 no effect, 100 complete control)
Summary of the method: as §1

[14] = tested on: barnyardgrass (Echinochloa crus-galli); experiment: Test A preemergence, barnyardgrass; details: 0 to 100 scale (0 no effect, 100 complete control)
Summary of the method: as §1

[15] = tested on: giant foxtail (Setaria faberi); experiment: Test A preemergence, giant foxtail; details: 0 to 100 scale (0 no effect, 100 complete control)
Summary of the method: as §1

[16] = tested on: wheat (Triticum aestivum); experiment: Test A preemergence, wheat; details: 0 to 100 scale (0 no effect, 100 complete control)
Summary of the method: as §1

[17] = tested on: wheat (Triticum aestivum); experiment: Test A postemergence, wheat; details: 0 to 100 scale (0 no effect, 100 complete control)
Summary of the method: as §1

[18] = tested on: barnyardgrass (Echinochloa crus-galli); experiment: Test A postemergence, barnyardgrass; details: 0 to 100 scale (0 no effect, 100 complete control)
Summary of the method: as §1

[19] = tested on: pigweed (Amaranthus retroflexus); experiment: Test A preemergence, pigweed; details: 0 to 100 scale (0 no effect, 100 complete control)
Summary of the method: as §1

[20] = 250 g ai/ha, scale 0 to 100 (0 no effect, 100 complete control)

CC1(C)CC([S+]([O-])Cc2c(C(F)(F)C(F)(F)F)nc3n(c2=O)CCC3)=NO1 (stereo not drawn) [Compound 27]
40: Plant response rating, Morningglory ([6]; 500 g ai/ha) | Plant response rating, Crabgrass, Large ([7]; 125 g ai/ha) | Plant response rating, Velvetleaf ([9]; 500 g ai/ha) | Plant response rating, Foxtail, Giant ([13]; 125 g ai/ha) | Plant response rating, Barnyardgrass ([18]; 125 g ai/ha)
90: Plant response rating, Crabgrass, Large ([5]; 500 g ai/ha) | Plant response rating, Barnyardgrass ([14]; 500 g ai/ha) | Plant response rating, Foxtail, Giant ([15]; 500 g ai/ha)
0: Plant response rating, Velvetleaf ([1]; 125 g ai/ha) | Plant response rating, Ducksalad ([2]; 31 g ai/ha) | Plant response rating, Ducksalad ([2]; 62 g ai/ha) | Plant response rating, Ducksalad ([2]; 125 g ai/ha) | Plant response rating, Ducksalad ([2]; 250 g ai/ha) | Plant response rating, Corn (corn (Zea mays) [3]; 125 g ai/ha) | Plant response rating, Corn (corn (Zea mays) [3]; 500 g ai/ha) | Plant response rating, Sedge, Umbrella ([4]; 31 g ai/ha) | Plant response rating, Sedge, Umbrella ([4]; 62 g ai/ha) | Plant response rating, Sedge, Umbrella ([4]; 125 g ai/ha) | Plant response rating, Sedge, Umbrella ([4]; 250 g ai/ha) | Plant response rating, Morningglory ([6]; 125 g ai/ha) | Plant response rating, Barnyardgrass ([8]; 31 g ai/ha, scale 0 to 100) | Plant response rating, Barnyardgrass ([8]; 62 g ai/ha, scale 0 to 100) | Plant response rating, Barnyardgrass ([8]; 125 g ai/ha, scale 0 to 100) | Plant response rating, Barnyardgrass [8, 20] | Plant response rating, Velvetleaf ([9]; 125 g ai/ha) | Plant response rating, Corn (corn (Zea mays) [10]; 125 g ai/ha) | Plant response rating, Corn (corn (Zea mays) [10]; 500 g ai/ha) | Plant response rating, Rice (rice (Oryza sativa); 31 g ai/ha) | Plant response rating, Rice (rice (Oryza sativa); 62 g ai/ha) | Plant response rating, Rice (rice (Oryza sativa); 125 g ai/ha) | Plant response rating, Rice (rice (Oryza sativa); 250 g ai/ha) | Plant response rating, Morningglory ([11]; 125 g ai/ha) | Plant response rating, Morningglory ([11]; 500 g ai/ha) | Plant response rating, Pigweed ([12]; 125 g ai/ha) | Plant response rating, Wheat ([16]; 125 g ai/ha) | Plant response rating, Wheat ([17]; 125 g ai/ha) | Plant response rating, Pigweed ([19]; 125 g ai/ha) | Plant response rating, Pigweed ([19]; 500 g ai/ha)
50: Plant response rating, Barnyardgrass ([14]; 125 g ai/ha) | Plant response rating, Wheat ([16]; 500 g ai/ha) | Plant response rating, Wheat ([17]; 500 g ai/ha)
80: Plant response rating, Crabgrass, Large ([7]; 500 g ai/ha)
30: Plant response rating, Pigweed ([12]; 500 g ai/ha)
70: Plant response rating, Crabgrass, Large ([5]; 125 g ai/ha) | Plant response rating, Foxtail, Giant ([13]; 500 g ai/ha) | Plant response rating, Barnyardgrass ([18]; 500 g ai/ha)
60: Plant response rating, Velvetleaf ([1]; 500 g ai/ha) | Plant response rating, Foxtail, Giant ([15]; 125 g ai/ha)

CCn1c(=O)c(CS(=O)(=O)C2=NOC(C)(C)C2)nc2ccccc21 [Compound 28]
10: Plant response rating, Barnyardgrass ([14]; 500 g ai/ha)
30: Plant response rating, Barnyardgrass ([18]; 125 g ai/ha)
50: Plant response rating, Crabgrass, Large ([5]; 500 g ai/ha) | Plant response rating, Crabgrass, Large ([7]; 500 g ai/ha)
20: Plant response rating, Foxtail, Giant ([15]; 500 g ai/ha)
40: Plant response rating, Crabgrass, Large ([5]; 125 g ai/ha) | Plant response rating, Barnyardgrass ([18]; 500 g ai/ha)
0: Plant response rating, Velvetleaf ([1]; 125 g ai/ha) | Plant response rating, Velvetleaf ([1]; 500 g ai/ha) | Plant response rating, Ducksalad ([2]; 31 g ai/ha) | Plant response rating, Ducksalad ([2]; 62 g ai/ha) | Plant response rating, Ducksalad ([2]; 125 g ai/ha) | Plant response rating, Ducksalad ([2]; 250 g ai/ha) | Plant response rating, Corn (corn (Zea mays) [3]; 125 g ai/ha) | Plant response rating, Corn (corn (Zea mays) [3]; 500 g ai/ha) | Plant response rating, Sedge, Umbrella ([4]; 31 g ai/ha) | Plant response rating, Sedge, Umbrella ([4]; 62 g ai/ha) | Plant response rating, Sedge, Umbrella ([4]; 125 g ai/ha) | Plant response rating, Sedge, Umbrella ([4]; 250 g ai/ha) | Plant response rating, Morningglory ([6]; 125 g ai/ha) | Plant response rating, Morningglory ([6]; 500 g ai/ha) | Plant response rating, Crabgrass, Large ([7]; 125 g ai/ha) | Plant response rating, Barnyardgrass ([8]; 31 g ai/ha, scale 0 to 100) | Plant response rating, Barnyardgrass ([8]; 62 g ai/ha, scale 0 to 100) | Plant response rating, Barnyardgrass ([8]; 125 g ai/ha, scale 0 to 100) | Plant response rating, Barnyardgrass [8, 20] | Plant response rating, Velvetleaf ([9]; 125 g ai/ha) | Plant response rating, Velvetleaf ([9]; 500 g ai/ha) | Plant response rating, Corn (corn (Zea mays) [10]; 125 g ai/ha) | Plant response rating, Corn (corn (Zea mays) [10]; 500 g ai/ha) | Plant response rating, Rice (rice (Oryza sativa); 31 g ai/ha) | Plant response rating, Rice (rice (Oryza sativa); 62 g ai/ha) | Plant response rating, Rice (rice (Oryza sativa); 125 g ai/ha) | Plant response rating, Rice (rice (Oryza sativa); 250 g ai/ha) | Plant response rating, Morningglory ([11]; 125 g ai/ha) | Plant response rating, Morningglory ([11]; 500 g ai/ha) | Plant response rating, Pigweed ([12]; 125 g ai/ha) | Plant response rating, Pigweed ([12]; 500 g ai/ha) | Plant response rating, Foxtail, Giant ([13]; 125 g ai/ha) | Plant response rating, Foxtail, Giant ([13]; 500 g ai/ha) | Plant response rating, Barnyardgrass ([14]; 125 g ai/ha) | Plant response rating, Foxtail, Giant ([15]; 125 g ai/ha) | Plant response rating, Wheat ([16]; 125 g ai/ha) | Plant response rating, Wheat ([16]; 500 g ai/ha) | Plant response rating, Wheat ([17]; 125 g ai/ha) | Plant response rating, Wheat ([17]; 500 g ai/ha) | Plant response rating, Pigweed ([19]; 125 g ai/ha) | Plant response rating, Pigweed ([19]; 500 g ai/ha)
